Activity calls are given as the source filed them.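 The calls were made as follows: active = inhibition of plasma PAF acetylhydrolase at a set limit or more at 0.1 µM, with tenfold selectivity over all off-targets; inactive = inhibition below the limit or weaker selectivity.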

The text below walks through data of PubChem BioAssay AID588773 (The Scripps Research Institute Molecular Screening Center, 2011).

The test system of assay [1] is FAAH. Put plainly: competitive ABPP of pPAFAH versus proteome off-targets – biochemical, gel-based, FP-Rh fluorescence, mouse, HTS hit compounds, selectivity assay for pPAFAH inhibitor project, late-stage follow-up (AID 588773). The conditions noted are these: stronger effect = higher value.
Test in assay [2]: as above
The conditions noted are these: MW 30 kDa protein, stronger effect = higher value.

In assay [3] the target is ABHD4 (UniProt Q8VD66). The description is as above. The conditions noted are these: at 10 µM.
Assay [4] deals with Monoglyceride lipase (Mus musculus) (UniProt O35678). Described as above. The conditions noted are these: MAGL; for inhibition: stronger effect = higher value.
In assay [5] the test system is ABHD6. The assay is described as above. The conditions noted are these: for inhibition: stronger effect = higher value.
Assay [6] addresses Platelet-activating factor acetylhydrolase (Mus musculus) (UniProt Q60963). Described as above. The conditions noted are these: pPAFAH, stronger effect = higher value.
For assay [7], the system named is ABHD3. Described as above. The conditions noted are these: at 10 µM.
Assay [8] relates to LYPLA2. The assay is described as above. The conditions noted are these: at 10 µM.
Assay [9] deals with LYPLA1. The description is as above. The conditions noted are these: at 10 µM.

ABHD4, sequence (Q8VD66 whole entry, looked up): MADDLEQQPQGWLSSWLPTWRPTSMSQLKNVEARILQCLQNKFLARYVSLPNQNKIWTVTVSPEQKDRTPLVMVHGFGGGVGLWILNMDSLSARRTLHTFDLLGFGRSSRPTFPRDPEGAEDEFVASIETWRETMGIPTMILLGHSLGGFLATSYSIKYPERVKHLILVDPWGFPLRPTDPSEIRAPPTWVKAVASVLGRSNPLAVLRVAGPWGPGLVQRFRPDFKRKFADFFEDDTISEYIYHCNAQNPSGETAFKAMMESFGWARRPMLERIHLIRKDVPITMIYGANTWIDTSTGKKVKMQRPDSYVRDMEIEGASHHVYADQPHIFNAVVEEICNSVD
Monoglyceride lipase (Mus musculus), sequence (O35678 whole entry, looked up): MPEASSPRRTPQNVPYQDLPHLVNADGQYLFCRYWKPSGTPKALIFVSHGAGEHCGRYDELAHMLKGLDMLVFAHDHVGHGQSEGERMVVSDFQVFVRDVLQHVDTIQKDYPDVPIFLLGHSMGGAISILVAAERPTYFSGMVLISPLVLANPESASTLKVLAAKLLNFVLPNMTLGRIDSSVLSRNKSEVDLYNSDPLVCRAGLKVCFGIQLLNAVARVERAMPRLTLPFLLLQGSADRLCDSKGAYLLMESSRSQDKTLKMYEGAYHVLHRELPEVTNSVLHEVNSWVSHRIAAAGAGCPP
Platelet-activating factor acetylhydrolase (Mus musculus), sequence (Q60963 whole entry, looked up): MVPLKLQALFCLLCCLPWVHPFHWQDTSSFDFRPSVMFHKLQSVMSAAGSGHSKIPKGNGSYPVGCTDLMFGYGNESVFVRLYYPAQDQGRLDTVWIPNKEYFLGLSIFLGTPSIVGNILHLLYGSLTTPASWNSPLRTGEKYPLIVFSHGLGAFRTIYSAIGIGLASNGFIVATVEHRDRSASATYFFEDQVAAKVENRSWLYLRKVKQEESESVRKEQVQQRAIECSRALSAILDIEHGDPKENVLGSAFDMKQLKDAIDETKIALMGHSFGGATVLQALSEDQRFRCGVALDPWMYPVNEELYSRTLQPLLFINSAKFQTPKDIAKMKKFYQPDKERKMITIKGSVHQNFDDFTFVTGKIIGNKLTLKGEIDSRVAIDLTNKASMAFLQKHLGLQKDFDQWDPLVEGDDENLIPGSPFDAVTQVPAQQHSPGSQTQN

A word on the inhibition: it is the drop in the measured response relative to a control, in per cent. Consider `CN(C)C(=O)Oc1noc2cc(Cl)ccc12`, for which the inhibition is 100% in assay [1] (at 10 µM); 100% in assay [1] (inhibition, at 0.1 µM); 100% in assay [1] (inhibition, at 1 µM); 6% in assay [2] (at 1 µM); 33% (inactive) in [4] (at 10 µM); 2% in [4] (inhibition, at 1 µM). For the same molecule, the inhibition is 65% (inactive) in assay [5] (at 10 µM); 21% in assay [5] (inhibition, at 0.1 µM); 26% in assay [5] (inhibition, at 1 µM); 100% (inactive) in assay [6] (at 10 µM); 47% in assay [6] (inhibition, at 0.1 µM); 92% in assay [6] (inhibition, at 1 µM). Moreover, the outcome in assay [3], in assay [7], in [8] and in assay [9] was inactive.
In the case of `CCCCOC(=O)c1ccc(OC(=O)N2CCOCC2)cc1`, the inhibition was 62% (inactive) in assay [1] (at 10 µM); 30% in assay [1] (inhibition, at 1 µM); 22% (inactive) in assay [5] (at 10 µM); 9% in [5] (inhibition, at 1 µM); 90% (inactive) in [6] (at 10 µM); 5% in [6] (inhibition, at 0.1 µM). In addition, the inhibition in assay [6] (inhibition, at 1 µM) is 70%. In addition, the result in assay [3], in assay [4] (at 10 µM), in [7], in assay [8] and in assay [9] was inactive.
Take `O=C(/C=C/c1cccs1)c1cc(Br)ccc1OC(=O)N1CCOCC1`: the inhibition in assay [1] (at 10 µM) was 61% (inactive); in assay [1] (inhibition, at 1 µM) it was 18%; in assay [6] (at 10 µM), 75% (inactive); in assay [6] (inhibition, at 1 µM), 56%. In addition, the outcome in assay [3], in assay [4] (at 10 µM), in [5] (at 10 µM), in [7], in assay [8] and in assay [9] was inactive.
Turning to `O=C(CCCSc1ccc(Cl)cc1)Nc1cc(S(=O)(=O)N2CCOCC2)ccc1O`, the inhibition was 25% (inactive) in assay [1] (at 10 µM); 27% (inactive) in assay [4] (at 10 µM); 26% (inactive) in assay [5] (at 10 µM); 88% (inactive) in assay [6] (at 10 µM); 18% in assay [6] (inhibition, at 0.1 µM); 50% in assay [6] (inhibition, at 1 µM). Moreover, the outcome in assay [3], in assay [7], in assay [8] and in [9] was inactive.
For the molecule `O=C(Oc1ccc([N+](=O)[O-])cc1)N1CCC(N2CCCCC2)CC1`, the inhibition in assay [1] (at 10 µM) is 60% (inactive); in [1] (inhibition, at 1 µM), 30%; in assay [2] (at 1 µM) it was 22%; in assay [4] (at 10 µM) it was 45% (inactive); in assay [4] (inhibition, at 1 µM), 23%; in assay [5] (at 10 µM) it was 48% (inactive). In addition, the inhibition is 22% in assay [5] (inhibition, at 1 µM); 92% (inactive) in [6] (at 10 µM); 66% in assay [6] (inhibition, at 1 µM). Also, the outcome in [3], in assay [7], in assay [8] and in [9] was inactive.
For the molecule `O=C(Oc1nsnc1N1CCOCC1)N1CCOCC1`, the inhibition is 85% (inactive) in assay [1] (at 10 µM); 80% in [1] (inhibition, at 1 µM); 4% in [2] (at 0.1 µM); 23% in [2] (at 1 µM); 39% (inactive) in [5] (at 10 µM); 29% in assay [5] (inhibition, at 1 µM). Also, the inhibition in assay [6] (at 10 µM) was 86% (inactive); in [6] (inhibition, at 1 µM), 28%. Further, the result in assay [3], in assay [4] (at 10 µM), in assay [7], in [8] and in [9] was inactive.
In the case of `O=C(Oc1ccc(-c2ccccc2)cc1)N1CCOCC1`, the inhibition is 83% (inactive) in [1] (at 10 µM); 23% in assay [1] (inhibition, at 0.1 µM); 31% in [1] (inhibition, at 1 µM); 21% in assay [2] (at 0.1 µM); 27% in assay [2] (at 1 µM); 20% (inactive) in assay [4] (at 10 µM). Further, the inhibition was 6% in [4] (inhibition, at 1 µM); 25% (inactive) in [5] (at 10 µM); 12% in assay [5] (inhibition, at 0.1 µM); 16% in assay [5] (inhibition, at 1 µM); 94% (inactive) in assay [6] (at 10 µM); 32% in [6] (inhibition, at 0.1 µM). In [6] (inhibition, at 1 µM), the inhibition was 78%. Moreover, the result in assay [3], in assay [7], in assay [8] and in [9] was inactive.
For `O=C(Oc1ccc(-c2ccccc2)cc1)N1CCCCC1`, the inhibition is 99% (inactive) in [1] (at 10 µM); 56% in assay [1] (inhibition, at 1 µM); 18% in [2] (at 0.1 µM); 60% in assay [2] (at 1 µM); 40% (inactive) in [4] (at 10 µM); 36% in assay [4] (inhibition, at 1 µM). For the same molecule, the inhibition in assay [5] (at 10 µM) was 53% (inactive); in [5] (inhibition, at 1 µM), 34%; in assay [6] (at 10 µM), 95% (inactive); in [6] (inhibition, at 0.1 µM), 35%; in assay [6] (inhibition, at 1 µM) it was 33%. In addition, the result in assay [3], in assay [7], in assay [8] and in [9] was inactive.
Turning to `O=C(Oc1ccc(Oc2ccccc2)cc1)N1CCC(O)CC1`, the inhibition in assay [1] (at 10 µM) is 17% (inactive); in assay [1] (inhibition, at 1 µM) it was 2%; in assay [5] (at 10 µM), 39% (inactive); in assay [5] (inhibition, at 1 µM), 19%; in assay [6] (at 10 µM) it was 92% (inactive); in assay [6] (inhibition, at 1 µM), 62%. Further, the result in assay [3], in assay [4] (at 10 µM), in assay [7], in assay [8] and in [9] was inactive.
